From PubChem BioAssay AID1963875 (Molecular Pharmacology Branch, DTP, NCI, 2024)

System: KRAS-mutant PDC complex spheroid viability
Assay: Anticancer human tumor 186277-243-T-J2-PDC patient-derived colon adenocarcinoma cell line growth inhibition [KRAS2]
Conditions: for IC50: curve of first compound; for viability, T/C: stronger effect = lower value
How it was run: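 KRAS-mutant tumor cells were grown as spheroids with HUVEC endothelial cells and human MSCs as stroma. Targeted agents were tested alone and with KRAS pathway inhibitors. Doses started at or near clinical Cmax, or 10 microM, descending half-log.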

[1] = second compound 0.1 µM, first compound 0.0316 µM
[2] = second compound 0.1 µM, first compound 0.1 µM
[3] = second compound 0.1 µM, first compound 0.316 µM
[4] = second compound 0.1 µM, first compound 1 µM
[5] = second compound 0.1 µM, first compound 3.16 µM
[6] = second compound 0.1 µM, first compound 10 µM
[7] = second compound 0.316 µM, first compound 0.0316 µM
[8] = second compound 0.316 µM, first compound 0.1 µM
[9] = second compound 0.316 µM, first compound 0.316 µM
[10] = second compound 0.316 µM, first compound 1 µM
[11] = second compound 0.316 µM, first compound 3.16 µM
[12] = second compound 0.316 µM, first compound 10 µM
[13] = second compound 1 µM, first compound 0.0316 µM
[14] = second compound 1 µM, first compound 0.1 µM
[15] = second compound 1 µM, first compound 0.316 µM
[16] = second compound 1 µM, first compound 1 µM
[17] = second compound 1 µM, first compound 3.16 µM
[18] = second compound 1 µM, first compound 10 µM
[19] = second compound 3.16 µM, first compound 0.0316 µM
[20] = second compound 3.16 µM, first compound 0.1 µM
[21] = second compound 3.16 µM, first compound 0.316 µM
[22] = second compound 3.16 µM, first compound 1 µM
[23] = second compound 3.16 µM, first compound 3.16 µM
[24] = second compound 3.16 µM, first compound 10 µM
[25] = second compound 10 µM, first compound 0.0316 µM
[26] = second compound 10 µM, first compound 0.1 µM
[27] = second compound 10 µM, first compound 0.316 µM
[28] = second compound 10 µM, first compound 1 µM
[29] = second compound 10 µM, first compound 3.16 µM
[30] = second compound 10 µM, first compound 10 µM
[31] = second compound 0.1 µM, first compound 0.000316 µM
[32] = second compound 0.1 µM, first compound 0.001 µM
[33] = second compound 0.1 µM, first compound 0.00316 µM
[34] = second compound 0.1 µM, first compound 0.01 µM
[35] = second compound 0.316 µM, first compound 0.000316 µM
[36] = second compound 0.316 µM, first compound 0.001 µM
[37] = second compound 0.316 µM, first compound 0.00316 µM
[38] = second compound 0.316 µM, first compound 0.01 µM
[39] = second compound 1 µM, first compound 0.000316 µM
[40] = second compound 1 µM, first compound 0.001 µM
[41] = second compound 1 µM, first compound 0.00316 µM
[42] = second compound 1 µM, first compound 0.01 µM
[43] = second compound 3.16 µM, first compound 0.000316 µM
[44] = second compound 3.16 µM, first compound 0.001 µM
[45] = second compound 3.16 µM, first compound 0.00316 µM
[46] = second compound 3.16 µM, first compound 0.01 µM
[47] = second compound 10 µM, first compound 0.000316 µM
[48] = second compound 10 µM, first compound 0.001 µM
[49] = second compound 10 µM, first compound 0.00316 µM
[50] = second compound 10 µM, first compound 0.01 µM
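For viability, T/C in this document: viability read after seven days of compound exposure; 100% = DMSO vehicle-treated spheroids so lower means less viable.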

SMILES | IC50 (second compound 0.1 µM) | IC50 (second compound 0.316 µM) | IC50 (second compound 1 µM) | IC50 (second compound 3.16 µM) | IC50 (second compound 10 µM) | viability, T/C [1] | viability, T/C [2] | viability, T/C [3] | viability, T/C [4] | viability, T/C [5] | viability, T/C [6] | viability, T/C [7] | viability, T/C [8] | viability, T/C [9] | viability, T/C [13] | viability, T/C [14] | viability, T/C [19] | viability, T/C [20] | viability, T/C [25] | viability, T/C [26] | other results
CC(C)NCC(C(=O)N1CCN(c2ncnc3c2C(C)CC3O)CC1)c1ccc(Cl)cc1 (stereo not given) + COc1cc2nc(C)nc(NC(C)c3cc(N)cc(C(F)(F)F)c3)c2cc1OC1CCOC1 | 414 nM | 305 nM | 359 nM | 571 nM | 36.4 nM | 103% | 83.4% | 54.8% | 34.8% | 3.87% | 7.18% | 100% | 85.4% | 47.2% | 98.2% | 87.8% | 107% | 90.4% | 52.4% | 34.7% | viability, T/C [10]: 21.6%; viability, T/C [11]: 1.85%; viability, T/C [12]: 7.05%; viability, T/C [15]: 50.2%; viability, T/C [16]: 24.6%; viability, T/C [17]: 1.87%; viability, T/C [18]: 0.23%; viability, T/C [21]: 96.5%; viability, T/C [22]: 5.81%; viability, T/C [23]: 0.99%; viability, T/C [24]: 8.22%; viability, T/C [27]: 18.7%; viability, T/C [28]: 0.82%; viability, T/C [29]: 0.18%; viability, T/C [30]: 0.39%
CC(C)n1nc(-c2ccc3oc(N)nc3c2)c2c(N)ncnc21 + COc1cc2nc(C)nc(NC(C)c3cc(N)cc(C(F)(F)F)c3)c2cc1OC1CCOC1 | 7.67 nM | 6.38 nM | 15.4 nM | 17.3 nM | 5.8 nM | 25.3% | 17.3% |  |  |  |  | 19.8% | 17.2% |  | 28.5% | 13.7% | 29% | 16% | 21.1% | 8.37% | viability, T/C [31]: 98.3%; viability, T/C [32]: 96.3%; viability, T/C [33]: 64.8%; viability, T/C [34]: 47%; viability, T/C [35]: 111%; viability, T/C [36]: 93.6%; viability, T/C [37]: 74.1%; viability, T/C [38]: 34.8%; viability, T/C [39]: 108%; viability, T/C [40]: 103%; viability, T/C [41]: 91.8%; viability, T/C [42]: 62.9%; viability, T/C [43]: 109%; viability, T/C [44]: 103%; viability, T/C [45]: 99.8%; viability, T/C [46]: 69%; viability, T/C [47]: 64.5%; viability, T/C [48]: 64.3%; viability, T/C [49]: 58.8%; viability, T/C [50]: 41.9%
CC1(C)CCC(CN2CCN(c3ccc(C(=O)NS(=O)(=O)c4ccc(NCC5CCOCC5)c([N+](=O)[O-])c4)c(Oc4cnc5[nH]ccc5c4)c3)CC2)=C(c2ccc(Cl)cc2)C1 + COc1cc2nc(C)nc(NC(C)c3cc(N)cc(C(F)(F)F)c3)c2cc1OC1CCOC1 | 2190 nM | 2070 nM | 1980 nM | 2070 nM | 472 nM | 102% | 99.2% | 108% | 99.7% | 26.4% | 0.68% | 92.5% | 107% | 104% | 104% | 108% | 106% | 103% | 77.3% | 91.8% | viability, T/C [10]: 103%; viability, T/C [11]: 19.9%; viability, T/C [12]: 0.6%; viability, T/C [15]: 110%; viability, T/C [16]: 100%; viability, T/C [17]: 15.7%; viability, T/C [18]: 1.19%; viability, T/C [21]: 111%; viability, T/C [22]: 115%; viability, T/C [23]: 15.6%; viability, T/C [24]: 1.05%; viability, T/C [27]: 53.2%; viability, T/C [28]: 33.6%; viability, T/C [29]: 5.28%; viability, T/C [30]: 0.64%
COc1cc(Nc2ncc3c(n2)-c2ccc(Cl)cc2C(c2c(F)cccc2OC)=NC3)ccc1C(=O)O + COc1cc2nc(C)nc(NC(C)c3cc(N)cc(C(F)(F)F)c3)c2cc1OC1CCOC1 | < 31.6 nM | < 31.6 nM | < 31.6 nM | < 31.6 nM | < 31.6 nM | 30.3% | 29% | 26.4% | 29.2% | 38.8% | 38.7% | 26.8% | 27.7% | 26.1% | 26.8% | 24.7% | 22.2% | 22.6% | 14.1% | 17.8% | viability, T/C [10]: 27.4%; viability, T/C [11]: 33.7%; viability, T/C [12]: 36.6%; viability, T/C [15]: 23.5%; viability, T/C [16]: 25.7%; viability, T/C [17]: 31.3%; viability, T/C [18]: 34.2%; viability, T/C [21]: 22.1%; viability, T/C [22]: 20.6%; viability, T/C [23]: 24.3%; viability, T/C [24]: 22.4%; viability, T/C [27]: 10.2%; viability, T/C [28]: 7.56%; viability, T/C [29]: 14%; viability, T/C [30]: 7.41%
COc1cc2nccc(Oc3ccc(NC(=O)C4(C(=O)Nc5ccc(F)cc5)CC4)cc3)c2cc1OC + COc1cc2nc(C)nc(NC(C)c3cc(N)cc(C(F)(F)F)c3)c2cc1OC1CCOC1 | 882 nM | 866 nM | 779 nM | 726 nM | 187 nM | 98.2% | 112% | 114% | 12.5% | 15.8% | 101% | 105% | 102% | 97.8% | 108% | 108% | 114% | 114% | 92.2% | 66.9% | viability, T/C [10]: 13.9%; viability, T/C [11]: 13.5%; viability, T/C [12]: 102%; viability, T/C [15]: 82.2%; viability, T/C [16]: 11.3%; viability, T/C [17]: 10.7%; viability, T/C [18]: 101%; viability, T/C [21]: 80.7%; viability, T/C [22]: 9.28%; viability, T/C [23]: 1.53%; viability, T/C [24]: 104%; viability, T/C [27]: 39.4%; viability, T/C [28]: 1.55%; viability, T/C [29]: 0.17%; viability, T/C [30]: 89%
Cn1ncnc1[C@H]1c2n[nH]c(=O)c3cc(F)cc(c23)N[C@@H]1c1ccc(F)cc1 + COc1cc2nc(C)nc(NC(C)c3cc(N)cc(C(F)(F)F)c3)c2cc1OC1CCOC1 | > 100 nM | > 100 nM | > 100 nM | > 100 nM | 9.92 nM | 103% | 79.1% |  |  |  |  | 90.5% | 74.5% |  | 83.4% | 64.5% | 74.7% | 63.9% | 42.2% | 25% | viability, T/C [31]: 98.7%; viability, T/C [32]: 107%; viability, T/C [33]: 106%; viability, T/C [34]: 109%; viability, T/C [35]: 108%; viability, T/C [36]: 120%; viability, T/C [37]: 105%; viability, T/C [38]: 89.4%; viability, T/C [39]: 109%; viability, T/C [40]: 112%; viability, T/C [41]: 104%; viability, T/C [42]: 99.2%; viability, T/C [43]: 81.8%; viability, T/C [44]: 116%; viability, T/C [45]: 108%; viability, T/C [46]: 86.3%; viability, T/C [47]: 79.2%; viability, T/C [48]: 68.5%; viability, T/C [49]: 63.6%; viability, T/C [50]: 45.5%
